Laboratory results published in PubChem BioAssay (NCI).
Several values for one entry are separate records, joined by “and”; a condition that tells them apart may be missing. Identical values can stand only once.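 Step 1: Grow cells in 96-well plates. Step 2: Expose to compound for 48 hours at 5 concentrations. Step 3: Interpolate endpoints linearly; if unreached, use highest concentration. GI50 = concentration required for 50% inhibition of growth. At the TGI there is no net growth.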

Legend:
Assay in all cases: growth of human tumour cells (NCI), 48 h
[1] = system: A549 NSCLC
[2] = system: EKVX NSCLC
[3] = system: 786-0 renal
[4] = system: M14 melanoma
[5] = system: TK-10 renal
[6] = system: RXF-631 renal
[7] = system: SW-620 colon
[8] = system: HT29 colon
[9] = system: RPMI-8226 leukemia
[10] = system: SNB-75 CNS
[11] = system: SK-MEL-5 melanoma
[12] = system: CCRF-CEM leukemia
[13] = system: UO-31 renal
[14] = system: MCF7 breast
[15] = system: OVCAR-3 ovarian
[16] = system: SK-OV-3 ovarian
[17] = system: UACC-257 melanoma
[18] = system: A498 renal
[19] = system: SNB-19 CNS
[20] = system: MALME-3M melanoma
[21] = system: CAKI-1 renal
[22] = system: HOP-62 NSCLC
[23] = system: SK-MEL-2 melanoma
[24] = system: K-562 leukemia
[25] = system: COLO 205 colon
[26] = system: ACHN renal
[27] = system: HCC-2998 colon
[28] = system: SNB-78 CNS
[29] = system: NCI/ADR-RES ovarian
[30] = system: M19-MEL melanoma
[31] = system: MDA-N
[32] = system: NCI-H23 lung
[33] = system: SN12C renal
[34] = system: OVCAR-5 ovarian
[35] = system: KM20L2 colon
[36] = system: NCI-H226 lung
[37] = system: NCI-H460 lung
[38] = system: SF-539 CNS
[39] = system: NCI-H522 lung
[40] = system: DMS 114 small cell lung
[41] = system: LOX IMVI melanoma
[42] = system: SR leukemia
[43] = system: UACC-62 melanoma
[44] = system: SF-295 CNS
[45] = system: IGROV1 ovarian
[46] = system: MOLT-4 leukemia
[47] = system: OVCAR-8 ovarian
[48] = system: SF-268 CNS
[49] = system: HCT-15 colon
[50] = system: DLD-1 colon
[51] = system: T-47D breast
[52] = system: HL-60(TB) leukemia
[53] = system: DMS 273 small cell lung
[54] = system: LXFL 529 NSCLC
[55] = system: SK-MEL-28 melanoma
[56] = system: MDA-MB-435
[57] = system: HOP-92 NSCLC
[58] = system: RXF 393 renal
[59] = system: U251 CNS
[60] = system: OVCAR-4 ovarian
[61] = system: KM12 colon
[62] = system: HCT-116 colon
[63] = system: HOP-18 NSCLC
[64] = system: XF 498 CNS

Q: Which GI50 [1] does the source give for `CN1C(c2ccccc2)CC(=NO)CC1c1ccccc1` (stereo not given) here?
A: 88.1 µM

Q: And the TGI [1]?
A: > 100 µM

Q: What about the TGI [2] of the same compound?
A: > 100 µM

Q: And the GI50 [3]?
A: 95.7 µM

Q: What about the TGI [3] of the same compound?
A: > 100 µM

Q: And the TGI [4]?
A: > 100 µM

Q: What about the GI50 [5] of the same compound?
A: 66.5 µM

Q: What about the TGI [5] of the same compound?
A: > 100 µM

Q: And the TGI [6]?
A: > 100 µM

Q: What about the GI50 [7] of the same compound?
A: 43 µM

Q: What about the TGI [7] of the same compound?
A: > 100 µM

Q: And the GI50 [8]?
A: 34.8 µM

Q: And the TGI [8]?
A: > 100 µM

Q: What about the GI50 [9] of the same compound?
A: 33 µM

Q: And the TGI [9]?
A: 55.5 µM

Q: What about the TGI [10] of the same compound?
A: > 100 µM

Q: And the GI50 [11]?
A: 71.8 µM

Q: And the TGI [11]?
A: > 100 µM

Q: What about the GI50 [12] of the same compound?
A: 29.2 µM

Q: What about the TGI [12] of the same compound?
A: > 100 µM

Q: And the TGI [13]?
A: > 100 µM

Q: And the GI50 [14]?
A: 44.3 µM

Q: What about the GI50 [15] of the same compound?
A: 24.9 µM

Q: And the TGI [15]?
A: > 100 µM and 77.3 µM

Q: And the TGI [16]?
A: > 100 µM

Q: And the GI50 [17]?
A: 26.8 µM

Q: What about the TGI [17] of the same compound?
A: > 100 µM and 79.9 µM

Q: What about the TGI [18] of the same compound?
A: > 100 µM

Q: What about the TGI [19] of the same compound?
A: > 100 µM

Q: And the TGI [20]?
A: > 100 µM

Q: What about the TGI [21] of the same compound?
A: > 100 µM

Q: What about the TGI [22] of the same compound?
A: > 100 µM

Q: And the TGI [23]?
A: > 100 µM

Q: And the GI50 [24]?
A: 32.6 µM

Q: And the TGI [24]?
A: > 100 µM

Q: And the GI50 [25]?
A: 33.6 µM

Q: What about the TGI [25] of the same compound?
A: 48 µM

Q: What about the TGI [26] of the same compound?
A: > 100 µM

Q: What about the GI50 [27] of the same compound?
A: 30.5 µM

Q: What about the TGI [27] of the same compound?
A: > 100 µM and 81.6 µM

Q: And the TGI [28]?
A: > 100 µM

Q: What about the GI50 [29] of the same compound?
A: 48.8 µM

Q: What about the TGI [30] of the same compound?
A: > 100 µM

Q: And the GI50 [31]?
A: 76 µM

Q: And the TGI [32]?
A: > 100 µM

Q: What about the GI50 [33] of the same compound?
A: 30.6 µM

Q: And the TGI [33]?
A: 58.9 µM and 97.1 µM

Q: What about the TGI [34] of the same compound?
A: > 100 µM

Q: What about the TGI [35] of the same compound?
A: > 100 µM

Q: What about the TGI [36] of the same compound?
A: > 100 µM

Q: And the GI50 [37]?
A: 41.2 µM

Q: And the TGI [37]?
A: > 100 µM

Q: And the TGI [38]?
A: > 100 µM

Q: And the GI50 [39]?
A: 39.7 µM

Q: What about the TGI [39] of the same compound?
A: > 100 µM

Q: And the TGI [40]?
A: > 100 µM

Q: What about the TGI [41] of the same compound?
A: 40.7 µM

Q: What about the GI50 [42] of the same compound?
A: 24.9 µM

Q: What about the TGI [42] of the same compound?
A: > 100 µM and 80.1 µM

Q: What about the TGI [43] of the same compound?
A: > 100 µM

Q: What about the GI50 [44] of the same compound?
A: 44.5 µM

Q: What about the TGI [44] of the same compound?
A: > 100 µM

Q: What about the TGI [45] of the same compound?
A: > 100 µM

Q: And the GI50 [46]?
A: 23 µM

Q: And the TGI [46]?
A: 62.2 µM and 69.3 µM

Q: What about the GI50 [47] of the same compound?
A: 54.1 µM

Q: And the TGI [47]?
A: > 100 µM

Q: What about the TGI [48] of the same compound?
A: > 100 µM

Q: What about the GI50 [49] of the same compound?
A: 41.1 µM

Q: And the TGI [49]?
A: > 100 µM

Q: What about the TGI [50] of the same compound?
A: > 100 µM

Q: What about the GI50 [51] of the same compound?
A: 46.4 µM

Q: And the GI50 [52]?
A: 22 µM

Q: What about the TGI [52] of the same compound?
A: 40.7 µM and 68 µM

Q: And the TGI [53]?
A: > 100 µM

Q: What about the TGI [54] of the same compound?
A: > 100 µM

Q: And the TGI [55]?
A: > 100 µM

Q: And the GI50 [56]?
A: 61 µM

Q: What about the TGI [57] of the same compound?
A: > 100 µM

Q: And the GI50 [58]?
A: 87.9 µM

Q: What about the TGI [58] of the same compound?
A: > 100 µM

Q: And the TGI [59]?
A: > 100 µM

Q: What about the TGI [60] of the same compound?
A: > 100 µM

Q: And the GI50 [61]?
A: 49.1 µM

Q: And the TGI [61]?
A: > 100 µM

Q: And the GI50 [62]?
A: 33.9 µM

Q: What about the TGI [62] of the same compound?
A: 33.6 µM

Q: For `COc1ccc(C2=NN(C(C)=O)c3nc4ccccc4nc3O2)cc1`, which TGI [1] is on record?
A: > 100 µM

Q: And the TGI [2]?
A: > 100 µM

Q: And the TGI [3]?
A: 48.7 µM

Q: What about the TGI [5] of the same compound?
A: 52.1 µM

Q: And the TGI [6]?
A: > 100 µM

Q: What about the TGI [7] of the same compound?
A: > 100 µM

Q: And the TGI [8]?
A: > 100 µM

Q: What about the TGI [9] of the same compound?
A: > 100 µM

Q: What about the TGI [10] of the same compound?
A: 21.7 µM

Q: And the TGI [12]?
A: > 100 µM

Q: And the TGI [13]?
A: 90.4 µM

Q: What about the TGI [15] of the same compound?
A: > 100 µM

Q: What about the TGI [17] of the same compound?
A: > 100 µM

Q: What about the TGI [19] of the same compound?
A: 87.7 µM

Q: What about the TGI [20] of the same compound?
A: > 100 µM

Q: What about the TGI [22] of the same compound?
A: 64 µM

Q: And the TGI [23]?
A: > 100 µM

Q: What about the TGI [24] of the same compound?
A: > 100 µM

Q: What about the TGI [25] of the same compound?
A: > 100 µM

Q: And the TGI [26]?
A: > 100 µM

Q: And the TGI [27]?
A: > 100 µM

Q: What about the TGI [30] of the same compound?
A: > 100 µM

Q: What about the TGI [32] of the same compound?
A: > 100 µM

Q: What about the TGI [33] of the same compound?
A: > 100 µM

Q: And the TGI [37]?
A: > 100 µM

Q: And the TGI [38]?
A: 43.1 µM

Q: And the TGI [39]?
A: 63.8 µM

Q: What about the TGI [40] of the same compound?
A: > 100 µM

Q: What about the TGI [42] of the same compound?
A: > 100 µM

Q: And the TGI [43]?
A: > 100 µM

Q: What about the TGI [44] of the same compound?
A: > 100 µM

Q: And the TGI [45]?
A: 27.4 µM

Q: And the TGI [46]?
A: > 100 µM

Q: What about the TGI [47] of the same compound?
A: > 100 µM

Q: What about the TGI [48] of the same compound?
A: > 100 µM

Q: What about the TGI [49] of the same compound?
A: > 100 µM

Q: And the TGI [50]?
A: 88 µM

Q: And the TGI [63]?
A: 88.9 µM

Q: And the TGI [52]?
A: > 100 µM

Q: What about the TGI [64] of the same compound?
A: 49.2 µM

Q: What about the TGI [53] of the same compound?
A: > 100 µM

Q: What about the TGI [54] of the same compound?
A: > 100 µM

Q: And the TGI [55]?
A: > 100 µM

Q: What about the TGI [57] of the same compound?
A: 62.5 µM

Q: What about the TGI [59] of the same compound?
A: 61.8 µM

Q: And the TGI [60]?
A: 98.4 µM

Q: What about the TGI [61] of the same compound?
A: > 100 µM

Q: What about the TGI [62] of the same compound?
A: > 100 µM
